Measurements as given in ChEMBL document CHEMBL6115028, “An Amazing 30-Year Journey around the DABO Family: A Medicinal Chemistry Lesson on a Versatile Class of Non-nucleoside HIV-1 Reverse Transcriptase Inhibitors” (J Med Chem, 2025).

How the values were obtained:
MT4 [1] = assay: Cytotoxicity against human MT4 cells; format: functional
[2] = test system: Human immunodeficiency virus 1; assay: Antiviral activity against wild type HIV-1 IIIB infected in human MT4 cells assessed as protection against virus-induced cytopathic effect incubated for 72 hrs by MTT assay; format: functional, organism-based; conditions: Human immunodeficiency virus 1, IIIB, MT4, 72 h
[3] = test system: Human immunodeficiency virus 1; assay: Antiviral activity against HIV-1 infected in human MT4 cells assessed as reduction in virus-induced cytopathic effect incubated for 5 days by Cell Titer-Glo luminescent assay; format: functional, organism-based; conditions: Human immunodeficiency virus 1, MT4, 120 h
MT4 [4] = assay: Cytotoxicity against human MT4 cells assessed as reduction in cell viability after 5 days by MTT assay; format: functional; conditions: MT4, 120 h, time 5 day
[5] = Selectivity index, ratio of CC50 for human MT4 cells to EC50 for antiviral activity against HIV1 infected in human MT4 cells; format: toxicity, cell-based; conditions: read-out: Ratio CC50/EC50
[6] = molecular target: T1, Human immunodeficiency virus type 1 reverse transcriptase (Human immunodeficiency virus 1, UniProt Q72547); assay: Inhibition of recombinant HIV-1 reverse transcriptase associated RNA-dependent DNA polymerase activity incubated for 30 mins by liquid scintillation method
MT4 [7] = assay: Cytotoxicity against human MT4 cells assessed as reduction in cell viability incubated for 4 days by MTT assay; format: functional; conditions: MT4, 96 h, time 4 day
[8] = test system: Human immunodeficiency virus 1; assay: Antiviral activity against wild type HIV-1 IIIB infected in human MT4 cells assessed as reduction in cytopathic effect measured after 4 days by MTT assay; format: functional, organism-based; conditions: Human immunodeficiency virus 1, IIIB, MT4, 96 h
[9] = test system: Human immunodeficiency virus 1; assay: Antiviral activity against […] infected in human MT4 cells assessed as reduction in cytopathic effect measured after 4 days by MTT assay; format: functional, organism-based; conditions: Human immunodeficiency virus 1, IIIB, MT4, 96 h
[10] = test system: Human immunodeficiency virus 1; assay: Antiviral activity against wild type HIV-1 IIIB harboring Y181C/K103N double mutant infected in human MT4 cells assessed as reduction in cytopathic effect measured after 4 days by MTT assay; format: functional, organism-based; conditions: Human immunodeficiency virus 1, IIIB, MT4, 96 h
[11] = test system: Human immunodeficiency virus 1; assay: Antiviral activity against wild type HIV-1 NL4-3 infected in human MT4 cells assessed as reduction in viral replication measured for 72 hrs by ELISA analysis; format: functional, organism-based; conditions: Human immunodeficiency virus 1, NL4-3, MT4, 72 h
[12] = test system: Human immunodeficiency virus 1; assay: Antiviral activity against HIV-1 NL4-3 harboring infected Y181C mutant infected in human MT4 cells assessed as reduction in viral replication; format: functional, organism-based; conditions: Human immunodeficiency virus 1, NL4-3, MT4
[13] = test system: Human immunodeficiency virus 1; assay: Antiviral activity against HIV-1 NL4-3 harboring infected K103N mutant infected in human MT4 cells assessed as reduction in viral replication; format: functional, organism-based; conditions: Human immunodeficiency virus 1, NL4-3, MT4
[14] = test system: Human immunodeficiency virus 1; assay: Antiviral activity against HIV-1 NL4-3 harboring infected Y188L mutant infected in human MT4 cells assessed as reduction in viral replication; format: functional, organism-based; conditions: Human immunodeficiency virus 1, NL4-3, MT4
MT2 = assay: Cytotoxicity against human MT2 cells; format: functional
[15] = test system: Human immunodeficiency virus 1; assay: Antiviral activity against HIV-1 3B infected in human MT4 cells assessed as reduction in viral replication incubated for 5 days by MTT assay; format: functional, organism-based; conditions: Human immunodeficiency virus 1, 3B, MT4, 120 h
MT4 [16] = assay: Cytotoxicity against human MT4 cells assessed as reduction in cell growth incubated for 5 days by MTT assay; format: functional; conditions: MT4, 120 h, time 5 day
[17] = test system: Human immunodeficiency virus 1; assay: Antiviral activity against HIV-1 harboring RT K103N mutant infected in human MT4 cells assessed as protection against virus-induced cytopathic effect measured for 5 days by MTT assay; format: functional, organism-based; conditions: Human immunodeficiency virus 1, MT4, 120 h
[18] = test system: Human immunodeficiency virus 1; assay: Antiviral activity against HIV-1 infected in human MT4 cells; format: functional, organism-based; conditions: Human immunodeficiency virus 1, MT4
[19] = test system: Human immunodeficiency virus 1; assay: Antiviral activity against wild type HIV-1 NL4-3 infected in human MT4 cells assessed as reduction in viral replication; format: functional, organism-based; conditions: Human immunodeficiency virus 1, NL4-3, MT4; read-out: EC50
Reverse transcriptase [20] = molecular target: T2, Reverse transcriptase (Human immunodeficiency virus 1, UniProt Q9WKE8, K103N); assay: Inhibition of HIV-1 Reverse transcriptase K103N mutant
[21] = molecular target: T1, Human immunodeficiency virus type 1 reverse transcriptase; assay: Inhibition of wild type HIV-1 Reverse transcriptase
Reverse transcriptase [22] = molecular target: T2, Reverse transcriptase; assay: Binding affinity to HIV-1 reverse transcriptase K103N mutant assessed as inhibition constant

Cc1cc(C)cc(Cc2nc(Sc3cccnc3)[nH]c(=O)c2C)c1
CC50 (MT4 [1]): 55 µM
EC50 [2]: 1.6 µM

CCC(C)Oc1nc(Sc2ccccc2)nc(N)c1C (configuration not stated)
EC50 [3]: 8 µM
CC50 (MT4 [4]): > 364 µM
selectivity ratio [5]: > 45
IC50 [6]: 28 µM

C=C(c1nc(N(C)C)[nH]c(=O)c1C)c1c(F)cccc1F
CC50 (MT4 [7]): > 100 µM
EC50 [8]: 0.2 µM
EC50 [9]: 44 µM
EC50 [10]: > 100 µM

CSc1nc(N)c(C)c(C(=O)c2ccc(F)cc2)n1
EC50 [11]: 0.58 µM
EC50 [12]: 0.21 µM
EC50 [13]: 5.95 µM
EC50 [14]: 0.21 µM

CSc1nc(C(C)C)c(CC2CCCCC2)n1COCc1ccccc1
CC50 (MT2): 31 µM

Cc1c(C(Br)c2c(F)cccc2F)nc(N(C)C)[nH]c1=O (configuration not stated)
CC50 (MT4 [7]): 43 µM
EC50 [8]: 0.2 µM
EC50 [9]: 43 µM
EC50 [10]: 43 µM

CCC(C)Sc1nc(Cc2cc(C)cc(C)c2)c(C)c(=O)[nH]1 (configuration not stated)
EC50 [15]: 0.6 µM
CC50 (MT4 [16]): 86 µM

O=C1c2ccccc2C(=O)N1CCSc1nc(Cc2c(F)cccc2F)cc(=O)[nH]1
EC50 [17]: 100 µM
CC50 (MT4 [1]): > 100 µM

Cc1c(C2(c3c(F)cccc3F)CC2)nc(SC2CCCC2)[nH]c1=O
selectivity ratio [5]: 2660
CC50 (MT4 [1]): 14 µM
EC50 [18]: 0.005 µM

Cc1cc(=O)[nH]c(SCCN2C(=O)c3ccccc3C2=O)n1
EC50 [17]: 1.9 µM
CC50 (MT4 [1]): 117 µM

CCc1nc(SC)n(COCc2ccccc2)c1CC1CCCCC1
CC50 (MT2): 25 µM

CCC(C)Sc1nc(Cc2cc(C)cc(C)c2)c(I)c(=O)[nH]1 (configuration not stated)
EC50 [15]: 4.3 µM
CC50 (MT4 [16]): 144 µM

CCC(C)Oc1nc(Cc2cc(C)cc(C)c2)c(C)c(=O)[nH]1 (configuration not stated)
EC50 [3]: 0.8 µM
CC50 (MT4 [4]): > 333 µM
selectivity ratio [5]: > 416
IC50 [6]: 2 µM

Cc1c(C(F)c2c(F)cccc2F)nc(N(C)C)[nH]c1=O (configuration not stated)
CC50 (MT4 [7]): > 100 µM
EC50 [8]: 0.02 µM
EC50 [9]: 2.8 µM
EC50 [10]: > 100 µM

CCOCn1c(SC)nc(C(C)C)c1CC1CCCCC1
CC50 (MT2): 39 µM

CSc1nc(C(C)C)c(Cc2ccccc2)n1COCc1ccccc1
CC50 (MT2): 29 µM

COc1ccc(C2CC2CN(C)c2nc(C(C)c3c(F)cccc3F)cc(=O)[nH]2)cc1 (configuration not stated)
EC50 [19]: 0.003 µM
IC50 (Reverse transcriptase [20]): 0.985 µM
EC50 [12]: > 5 µM
EC50 [13]: 0.07 µM
EC50 [14]: 2.95 µM

Cc1cc(C)cc(Cc2nc(Sc3cccc4ccccc34)[nH]c(=O)c2C)c1
CC50 (MT4 [1]): > 100 µM
EC50 [2]: 1.6 µM

Cc1cccc(Cc2cc(=O)[nH]c(OC3CCCCC3)n2)c1
EC50 [3]: 0.8 µM
CC50 (MT4 [4]): > 335 µM
selectivity ratio [5]: > 418
IC50 [6]: 1.8 µM

CCCSc1nc(C2(c3c(F)cccc3F)CC2)c(C)c(=O)[nH]1
selectivity ratio [5]: 3000
CC50 (MT4 [1]): 12 µM
EC50 [18]: 0.004 µM

COc1ccc(Cn2cc(CSc3nc(Cc4c(Cl)cccc4Cl)c(C)c(=O)[nH]3)nn2)cc1
CC50 (MT4 [1]): 29 µM
IC50 [21]: 4.56 µM

CC(c1cc(=O)[nH]c(N(C)C)n1)c1c(F)cccc1Cl (configuration not stated)
EC50 [11]: 0.007 µM
Ki (Reverse transcriptase [22]): 1 µM

Cc1c(C(O)c2c(F)cccc2F)nc(N(C)C)[nH]c1=O (configuration not stated)
CC50 (MT4 [7]): 50 µM
EC50 [8]: 1 µM
EC50 [9]: > 50 µM
EC50 [10]: > 50 µM

Cc1c(C(=O)c2c(F)cccc2F)nc(N(C)C)[nH]c1=O
CC50 (MT4 [7]): > 100 µM
EC50 [8]: 0.3 µM
EC50 [9]: 94 µM
EC50 [10]: > 100 µM
